Measured values from paper PMC4291083, “Ex Vivo Characterization of a Novel Iodine-123-Labelled Aminomethylchroman as a Potential Agonist Ligand for SPECT Imaging of Dopamine D2/3 Receptors” (International Journal of Molecular Imaging, 2014).

System: D2/3 receptors
Assay: Blocking studies using ex vivo storage phosphor imaging (haloperidol)
Type: in vivo
Details: 2 h p.i., rats
Procedure: To determine whether [^123I]-1 binds selectively to D2/3 receptors in vivo, in the following experiments 5 rats received an i.v. injection of the dopamine receptor blocker haloperidol (1 mg/kg) 5 min prior to the injection with [^123I]-1 (approximately 37 MBq). A control group (n = 5) was injected with 0.4 mL buffer 5 min prior to the injection with the radiopharmaceutical. Two hours after the injection of [^123I]-1 (this time point was based on the results of the classic biodistribution study; see Results) the rats were sacrificed by bleeding through heart puncture under O2/CO2 anaesthesia. The brains were quickly removed and immediately frozen on dry ice. Then the frozen brain was sliced horizontally in 50 μm thick slices. Storage phosphor imaging was done as previously described. In contrast to previous studies, we used a Typhoon FLA 7000 Phosphor imager (GE Healthcare Life Sciences, Uppsala, Sweden) and Hypercassette Amersham Biosciences imaging plates which were scanned at 25 μm pixel size. In this blocking experiment, storage phosphor imaging was used because this offers the opportunity to look into binding in ventral as well as dorsal parts of the striatum. In ventral parts, the expression of dopamine D3 receptors is higher than in more dorsal parts.

Oc1ccc2c(c1)O[C@@H](CNCc1ccc([123I])cc1)CC2 [[^123I]-1]
specific striatal binding (haloperidol 1 mg/kg i.v. 5 min prior vs control): no specific striatal binding was observed
specific binding in other brain areas including the globus pallidus: no specific binding
uptake in white matter: high uptake in white matter
